{"source": "patent US8609417B2", "about": "“Methods and compositions for stem cell cultures” (The Regents of the University of California, priority 2009, dated 2013)", "key": {"[1]": {"test_system": "hiPS and hES cells", "experiment": "Standard G-banded karyotyping", "assay_type": "cell-based, human", "conditions": "cells grown under blebbistatin/PDL for 20 passages", "procedure": "Standard G-banded karyotyping was carried out for each cell line approximately every 10 to 20 passages."}, "[2]": {"test_system": "hiPS cells", "experiment": "Attachment of hiPS cells on poly-D-lysine (PDL) in mTeSR", "assay_type": "cell-based, human", "conditions": "no signs of defects in cell-cell adhesions", "excerpt": "Myosin II controls cell-matrix contacts and detachment-induced apoptosis in hiPS and hiES cells. […] Similar results were obtained from the experiments using hES cells."}, "[3]": {"test_system": "hiPS cells", "experiment": "Cell viability under suspension culture", "assay_type": "cell-based, human", "conditions": "2 days", "procedure": "For the evaluation of cell viability under suspension culture, hES or hiPS cells were plated at 5×10^5 in non-tissue culture-treated 6-well plates with non-conditioned standard hESm containing blebbistatin or Y-27632 at different concentrations in triplicates. After 2 days, cells were harvested with trypsinization and extensive trituration by pipetting, and the number of live cells was manually counted by using hemocytometer and trypan blue staining. The cell survival ratio (%) represents the ratio of the number of live cells to the number of cells plated. The same samples were subjected to TUNEL assay for side by side comparison with the data from cell viability assay."}, "[4]": {"test_system": "hES or hiPS cells grown under the defined condition", "experiment": "Teratoma formation in SCID/beige mice", "assay_type": "in vivo, mouse", "conditions": "cells grown under blebbistatin/PDL for 20 passages, about 2×10^6 cells subcutaneously, 4 to 8 weeks", "excerpt": "All animal-related protocols were approved by Institutional Animal Care and Use Committee. Cells (approximately 2×10^6 cells) grown under defined conditions for multiple passages with occasional freezing and thawing were subcutaneously injected into severe combined immunodeficient (SCID)/beige mice (Charles River Laboratories). After 4 to 8 weeks, the developed teratomas were excised, fixed in 4% paraformaldehyde or 10% formalin, and subjected to histological section preparations."}, "[5]": {"test_system": "hiPS cells", "experiment": "Cell growth assay (population doubling time)", "assay_type": "cell-based, human", "conditions": "hiPS cells on PDL in mTeSR, compound at 5 μM", "procedure": "For the cell growth assay, hiPS or hES cells were plated at 2.5×10^4 cells/cm^2 on plates coated with PDL or Matrigel in mTeSR in the presence of blebbistatin at 5 μM or Y-27632 at 5 μM (PDL) or in the absence of compounds (Matrigel). Cells were harvested at the indicated time points, stained with trypan blue, and counted by the hemocytometer."}, "[6]": {"test_system": "Oct3/4 and Nanog", "experiment": "Oct3/4 and Nanog expression by QPCR, Western analysis and immunocytochemistry", "assay_type": "cell-based, human", "conditions": "hES cells in mTeSR or hESm, different concentrations, 48 h", "procedure": "For immunocytochemistry, cells grown on culture vessels were fixed in 4% paraformaldehyde (USB Corporation). After washing with PBS/BSA, the samples were incubated with primary antibodies recognizing the target proteins at 4° C. overnight. The primary antibodies used in the study include Oct3 (BD Biosciences), myosin IIA (Covance), and myosin IIB (Covance). The samples were washed for three times, and incubated with appropriate secondary antibodies conjugated with Alexa Fluorophore (Invitrogen) at room temperature for 30 min. […]\nQPCR. […] The extracted RNA sample was quantified by UV spectrophotometer, and qualified by the RNA Nano Lab chip (Agilent Technologies). […] Each cycle threshold (CT) value was determined by iQ5 optical system software (BioRad), and normalized by the β-actin expression level. […]\nTotal protein was extracted with RIPA buffer (20 mM Tris-HCl, pH 7.5, 150 mM NaCl, 1 mM Na2EDTA, 1 mM EGTA, 1% NP-40, 1% sodium deoxycholate, 2.5 mM sodium pyrophosphate, 1 mM β-glycerophosphate, 1 mM Na3VO4, and protease inhibitors). Protein concentrations were determined by BCA Protein Assay kit (Pierce). […]"}}, "data": [{"molecule": "Cc1ccc2c(c1)C(=O)C1(O)CCN(c3ccccc3)C1=N2", "note": "(stereo not shown) [blebbistatin, 1-Phenyl-1,2,3,4-tetrahydro-4-hydroxypyrrolo[2,3-b]-7-methylquinolin-4-one]", "values": [{"measurement": "Karyotype", "setting": "[1]", "result": "maintain genomic integrity"}, {"measurement": "Minimum concentration supporting attachment of hiPS cells on PDL", "setting": "[2]", "result": 2, "unit": "µM"}, {"measurement": "Effect on survival in suspension culture", "setting": "[3]; hPS cells in suspension, various concentrations", "result": "higher viability than Y-27632"}, {"measurement": "Number of live cells", "setting": "[3]; hiPS cells in suspension culture, 10 μM, n=3", "result": "1.6±0.12×10^5 cells"}, {"measurement": "Teratoma histology", "setting": "[4]", "result": "contain all three germ-layer derived differentiated tissues"}, {"measurement": "Population doubling time", "setting": "[5]", "result": "approximately 32.1 h"}, {"measurement": "Oct3/4 and Nanog expression", "setting": "[6]", "result": "elevated levels of both transcription factors in a dose dependent manner"}]}]}
